From PMC11089506 (Journal of Medicinal Chemistry, 2024)
Where a name gives a salt, the structure may show the parent alone. Read-outs that look alike come from different tables or passages of the source.

What was measured:
[1] = biological target: human 5-HT2CR (Homo sapiens, UniProt P28335); assay: Ca2+/Fluo-4 assay, agonist mode, stable 5-HT2CR-HEK293 cells; conditions: for 5-HT2CR Rmax ± S.E.M.: % of the 5-HT Rmax on the same 96-well plate; for 5-HT2CR Rmax (%): % of the 5-HT Rmax
[2] = biological target: human 5-HT2AR (Homo sapiens, UniProt P28223); assay: Ca2+/Fluo-4 assay, agonist mode, stable 5-HT2AR-HEK293 cells; conditions: for 5-HT2AR Rmax (%): % of the 5-HT Rmax; for 5-HT2AR pEC50 ± S.E.M. / 5-HT2AR Rmax ± S.E.M.: Table S2; for 5-HT2AR Rmax ± S.E.M.: % of the 5-HT Rmax on the same 96-well plate; for EC50: at least 3 independent experiments
Chain of human 5-HT2AR (P28223 whole entry): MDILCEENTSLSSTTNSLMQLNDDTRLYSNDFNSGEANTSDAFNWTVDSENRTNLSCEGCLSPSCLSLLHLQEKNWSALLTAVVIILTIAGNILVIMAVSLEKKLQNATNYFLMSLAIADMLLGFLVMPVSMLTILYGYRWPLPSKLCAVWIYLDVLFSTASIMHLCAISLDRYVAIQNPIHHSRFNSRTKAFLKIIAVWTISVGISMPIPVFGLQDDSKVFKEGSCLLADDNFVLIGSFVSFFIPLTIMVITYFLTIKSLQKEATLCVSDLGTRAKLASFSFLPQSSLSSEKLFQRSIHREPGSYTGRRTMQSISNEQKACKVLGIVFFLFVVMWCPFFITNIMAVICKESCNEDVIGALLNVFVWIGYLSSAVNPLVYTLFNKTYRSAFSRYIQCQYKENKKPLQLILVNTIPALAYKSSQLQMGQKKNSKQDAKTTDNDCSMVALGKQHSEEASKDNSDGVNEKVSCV

[3] = 5-HT2CR EC50 (nM), Table 2, at least 3 independent experiments
[4] = read-out: 5-HT2CR EC50, Table 1, at least 3 independent experiments
[5] = read-out: 5-HT2AR EC50, Table 1
[6] = 5-HT2CR EC50 (nM), Table 1, at least 3 independent experiments

Chain of human 5-HT2CR (P28335 33-458): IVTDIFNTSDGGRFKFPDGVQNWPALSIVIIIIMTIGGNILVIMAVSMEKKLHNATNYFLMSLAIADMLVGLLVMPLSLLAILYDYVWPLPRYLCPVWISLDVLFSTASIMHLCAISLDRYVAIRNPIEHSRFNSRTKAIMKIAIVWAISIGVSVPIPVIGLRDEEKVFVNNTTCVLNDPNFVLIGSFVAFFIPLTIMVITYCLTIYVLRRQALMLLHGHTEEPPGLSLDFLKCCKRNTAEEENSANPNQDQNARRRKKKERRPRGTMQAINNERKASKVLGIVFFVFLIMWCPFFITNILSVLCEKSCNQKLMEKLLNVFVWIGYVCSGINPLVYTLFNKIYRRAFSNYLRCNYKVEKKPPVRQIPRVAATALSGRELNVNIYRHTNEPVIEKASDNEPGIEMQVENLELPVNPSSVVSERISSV

SMILES	5-HT2CR pEC50 ± S.E.M. ([1]; Table S2)	5-HT2AR pEC50 ± S.E.M. [2]	5-HT2AR Rmax ± S.E.M. [2]	EC50 [1, 4]	EC50 [2, 5]	other results
COc1cc(C(F)(F)F)c(OC)cc1[C@H]1CCCNC1 [(R)-11, 3-(2,5-Dimethoxy-4-(trifluoromethyl)phenyl)piperidine Hydrochloride]	6.07 ± 0.06	–	–	–	–	–
COc1cc(C(F)(F)F)c(OC)cc1[C@H]1CCCN(C)C1 [(R)-19, (R)-3-(2,5-Dimethoxy-4-(trifluoromethyl)phenyl)-1-methylpiperidine]	–	5.96 ± 0.09	53 ± 8%	–	–	EC50 [1, 3]: > 10000 nM; 5-HT2AR Rmax (%) ([2]; Table 2): 53%
CCN1CCC[C@H](c2cc(OC)c(C(F)(F)F)cc2OC)C1 [(R)-20, (R)-3-(2,5-Dimethoxy-4-(trifluoromethyl)phenyl)-1-ethylpiperidine]	–	–	–	–	–	EC50 [1, 3]: > 10000 nM; EC50 ([2]; 5-HT2AR EC50 (nM), Table 2): > 10000 nM
COc1cc(C(F)(F)F)c(OC)cc1[C@@H]1CCCN(C)C1 [(S)-19, (S)-3-(2,5-Dimethoxy-4-(trifluoromethyl)phenyl)-1-methylpiperidine]	6.04 ± 0.03	–	19 ± 2%	–	–	5-HT2AR Rmax (%) ([2]; Table 2): 19%
CCN1CCC[C@@H](c2cc(OC)c(C(F)(F)F)cc2OC)C1 [(S)-20, (S)-3-(2,5-Dimethoxy-4-(trifluoromethyl)phenyl)-1-ethylpiperidine]	–	5.82 ± 0.08	44 ± 3%	–	–	EC50 [1, 3]: > 10000 nM; 5-HT2AR Rmax (%) ([2]; Table 2): 44%
COc1cc(C2CNC2)c(OC)cc1Br [Compound 4, 3-(4-Bromo-2,5-dimethoxyphenyl)azetidine Hydrochloride]	8.24 ± 0.07	8.80 ± 0.10	97 ± 3%	5.2 nM	1.6 nM	5-HT2CR Rmax ± S.E.M. ([1]; Table S2): 90 ± 3%; 5-HT2AR Rmax (%) ([2]; Table 1): 97 ± 3%
NCCc1c[nH]c2ccc(O)cc12 [Compound 5-HT, 5-hydroxytryptamine, reference compound]	–	–	100%	–	–	5-HT2AR Rmax (%) ([2]; Table 1): 100%
Br.COc1cc(C2CCNC2)c(OC)cc1Br (stereo not drawn) [Compound 5dis, 3-(4-Bromo-2,5-dimethoxyphenyl)pyrrolidine Hydrobromide]	7.75 ± 0.08	8.11 ± 0.08	39 ± 4%	18 nM	7.7 nM	Rmax at 5-HT2CR [1]: 73%; 5-HT2CR Rmax (%) ([1]; Table 1): 16 ± 3%; 5-HT2CR Rmax ± S.E.M. ([1]; Table S2): 16 ± 3%; 5-HT2AR Rmax (%) ([2]; Table 1): 39 ± 4%
Br.COc1cc(C2CCNC2)c(OC)cc1Br (stereo not drawn) [Compound 5eu, 3-(4-Bromo-2,5-dimethoxyphenyl)pyrrolidine Hydrobromide]	7.59 ± 0.03	8.28 ± 0.07	57 ± 3%	26 nM	5.3 nM	Rmax at 5-HT2CR [1]: 16%; 5-HT2CR Rmax (%) ([1]; Table 1): 73 ± 3%; 5-HT2CR Rmax ± S.E.M. ([1]; Table S2): 73 ± 3%; 5-HT2AR Rmax (%) ([2]; Table 1): 57 ± 3%
COc1cc(C2CCCNC2)c(OC)cc1Br (stereo not drawn) [Compound 6dis, 3-(4-Bromo-2,5-dimethoxyphenyl)piperidine]	–	–	–	–	–	EC50 [1, 6]: 1900 nM; EC50 ([2]; 5-HT2AR EC50 (nM), Table 1): 370 nM
COc1ccc(OC)c(C2CCCNC2)c1 (stereo not drawn) [Compound 7, 3-(2,5-Dimethoxyphenyl)piperidine]	–	–	–	–	–	EC50 [1, 6]: > 10000 nM; agonist activity at 5-HT2AR (in words) [2]: very weak 5-HT2AR agonist activity; EC50 ([2]; 5-HT2AR EC50 (nM), Table 1): > 10000 nM
COc1cc(C2CCCNC2)c(OC)cc1Cl (stereo not drawn) [Compound 8dis, 3-(4-Chloro-2,5-dimethoxyphenyl)piperidine]	5.75 ± 0.04	6.16 ± 0.11	–	1800 nM	690 nM	–
COc1cc(C2CCCNC2)c(OC)cc1I (stereo not drawn) [Compound 9dis, 3-(4-Iodo-2,5-dimethoxyphenyl)piperidine]	5.55 ± 0.08	6.58 ± 0.03	–	2800 nM	260 nM	–
COc1cc(C2CCCNC2)c(OC)cc1C#N (stereo not drawn) [Compound 10dis, 2,5-Dimethoxy-4-(piperidin-3-yl)benzonitrile]	~ 5.0	5.66 ± 0.06	–	~10000 nM	2200 nM	EC50 ([1]; read-out: 5-HT2CR EC50, Table S2): ~10000 nM
COc1cc(C2CCCNC2)c(OC)cc1C.Cl (stereo not drawn) [Compound 12dis, 3-(2,5-Dimethoxy-4-methylphenyl)piperidine Hydrochloride]	5.92 ± 0.08	6.58 ± 0.06	–	1200 nM	260 nM	–
